Results on three molecules are retold here after patent publication EP0147146A2, “Enhancement of transdermal drug delivery” (AMERICAN HOME PRODUCTS CORPORATION, priority 1983, dated 1985).

Structures can show the parent of a compound that is named as a salt.

This series is described as follows: in-vitro percutaneous transfer test with nude mouse skin in a diffusion cell. It counts as in vitro ADME. As for the experimental part:
The test formulation was first impregnated into 1-inch diameter circles of a thin non-woven rayon fabric usually in amounts representing about 20 mg or more per cm^2 of skin. The impregnated fabric was applied to the outside or epidermal side of the skin while the inside or tissue side of the skin was exposed to an aerated and stirred volume of Ringer's injection fluid maintained at about 37° C. Samples were taken at intervals from the stirred solution and assayed for drug content. The calculated total amount of percutaneously transferred drug is expressed as mg drug per cm^2 of exposed skin.
Two circles of non-woven fabric were impregnated with each formulation (designated A1, A2 and B1, B2 respectively) and tested for percutaneous drug transfer across nude mouse skin.
Two circles of nonwoven fabric were impregnated with each formulation, so as to contain 2-3 mg of conjugated estrogens. These were applied to nude mouse skins (6 em^2 exposed surface) for transdermal penetration tests. The average of duplicate tests is given below, in units of µg of transferred estrogen per cm^2 of exposed skin surface.

For the molecule `CCc1cccc2c3c([nH]c12)C(CC)(CC(=O)O)OCC3` (stereo not drawn) [etodolac, 1.8-diethyl-1,3,4,9-tetrahydropyrano[3,4-b] indole-1-acetic acid], the “increase in percutaneous transfer in the presence of menthol” value (with vs without 5% menthol in a glycerol/propylene glycol vehicle, nude mouse skin) is “about a three fold increase”. With `C[C@]12CC[C@@H]3c4ccc(O)cc4CC[C@H]3[C@@H]1CC[C@@H]2O` [17-β -estradiol], where the note is “lipophilic vehicles, nude mouse skin”, the “percutaneous transfer with and without menthol” value is “no significant differences”. Consider `C[C@]12CC[C@@H]3c4ccc(OS(=O)(=O)O)cc4CC[C@H]3[C@@H]1CC[C@@H]2O` [17-B -estradiol-3-sodium sulfate], for which the “flux rates of formulations containing menthol” value was “significantly higher flux rates”.
